Earlier results in US20090180950A1, “Polychromatic, diversely-sized particles for angiography” (The Trustees of Columbia University in the City of New York, priority 2006, published 2009).

System: plasma protein
Conditions: fluorescein

bound to plasma protein (fraction bound): 70-80%
unbound (free) fraction (fraction not bound to plasma protein): 20-30%
Structure (SMILES): O=C1OC2(c3ccc(O)cc3Oc3cc(O)ccc32)c2ccccc21 [fluorescein, Sodium fluorescein]
